# From PMC6364417, “Kinase inhibitor library screening identifies synergistic drug combinations effective in sensitive and resistant melanoma cells” (Journal of Experimental & Clinical Cancer Research : CR, 2019)
# Read-outs that look alike come from different tables or passages of the source.
# Assays:
# A375 cells (parental) [1] = experiment: Dose-response curves and IC50, PrestoBlue cell viability, 72 h; assay type: cell-based, human; conditions: read-out: Half-maximal inhibitory concentration value (IC50), Mean
# [2] = test system: IGR37-XP cells (Vemurafenib-resistant); experiment: Kinase inhibitor library screening, PrestoBlue cell viability, 1 or 10 μM, 72 h; conditions: IGR37 XP, 72 h
# [3] = test system: A375-GP cells (Dabrafenib-resistant); experiment: as above; conditions: A375 GP, 72 h
# [4] = test system: 501Mel-XP cells (Vemurafenib-resistant); experiment: as above; conditions: 501Mel XP, 72 h
# [5] = test system: IGR37-GP cells (Dabrafenib-resistant); experiment: as above; conditions: IGR37 GP, 72 h
# [6] = test system: 501Mel-GP cells (Dabrafenib-resistant); experiment: as above; conditions: 501Mel GP, 72 h
# [7] = test system: A375-XP cells (Vemurafenib-resistant); experiment: as above; conditions: A375 XP, 72 h
# 501Mel cells (parental) = experiment: as above; conditions: 501Mel Parental, 72 h
# Method in brief: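 Single-point screen at two doses over three days. Parental and BRAF-inhibitor-resistant sublines (XP: Vemurafenib; GP: Dabrafenib) were assessed by PrestoBlue viability, reported relative to untreated cells.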
# A375 cells (parental) [8] = experiment: as above; conditions: A375 Parental, 72 h
# IGR37 cells (parental) = experiment: as above; conditions: IGR37 Parental, 72 h
# [9] = test system: A375-XP cells (Vemurafenib-resistant); experiment: Dose-response curves and IC50, PrestoBlue cell viability, 72 h; assay type: cell-based, human; conditions: n.e. = did not suppress growth below 50% in the tested concentration range, read-out: Half-maximal inhibitory concentration value (IC50), Mean
# [10] = test system: A375-GP cells (Dabrafenib-resistant); experiment: as above; assay type: cell-based, human; conditions: n.e. = did not suppress growth below 50% in the tested concentration range, read-out: Half-maximal inhibitory concentration value (IC50), Mean
# [11] = n.e. = did not suppress growth below 50% in the tested concentration range
SMILES,IC50 (A375 cells (parental) [1]; [11]) [nM],IC50 [9] [nM],IC50 [10] [nM],cell viability (kinase inhibitor library screening) ([2]; 1μΜ) [%],cell viability (kinase inhibitor library screening) ([2]; 10μΜ) [%],cell viability (kinase inhibitor library screening) ([3]; 1μΜ) [%],cell viability (kinase inhibitor library screening) ([3]; 10μΜ) [%],cell viability (kinase inhibitor library screening) ([4]; 1μΜ) [%],cell viability (kinase inhibitor library screening) ([4]; 10μΜ) [%],cell viability (kinase inhibitor library screening) ([5]; 1μΜ) [%],cell viability (kinase inhibitor library screening) ([5]; 10μΜ) [%],cell viability (kinase inhibitor library screening) ([6]; 1μΜ) [%],cell viability (kinase inhibitor library screening) ([6]; 10μΜ) [%],cell viability (kinase inhibitor library screening) ([7]; 1μΜ) [%],cell viability (kinase inhibitor library screening) ([7]; 10μΜ) [%],cell viability (kinase inhibitor library screening) (501Mel cells (parental); 1μΜ) [%],cell viability (kinase inhibitor library screening) (501Mel cells (parental); 10μΜ) [%],cell viability (kinase inhibitor library screening) (A375 cells (parental) [8]; 10μΜ) [%],cell viability (kinase inhibitor library screening) (A375 cells (parental) [8]; 1μΜ) [%],cell viability (kinase inhibitor library screening) (IGR37 cells (parental); 1μΜ) [%],further results
"CNC(=O)c1c(F)cccc1Nc1nc(Nc2cc3c(cc2OC)CCN3C(=O)CN(C)C)nc2[nH]ccc12 [GSK1838705A, reference compound]",1200,769,969,,,,,,,,,,,,,,,,,,"cell viability, IGR37 XP, 10μΜ ([2]; 10μΜ): 1%; cell viability, IGR37 XP, 1μΜ ([2]; 1μΜ, in %): 42.8; cell viability, A375 GP, 1μΜ ([3]; 1μΜ, in %): 67.8; cell viability, A375 GP, 10μΜ ([3]; 10μΜ, in %): 10.4; cell viability, 501Mel XP, 1μΜ ([4]; 1μΜ, in %): 70.4; cell viability, 501Mel XP, 10μΜ ([4]; 10μΜ, in %): -0.3; cell viability, IGR37 GP, 10μΜ ([5]; 10μΜ): 2%; cell viability, IGR37 GP, 1μΜ ([5]; 1μΜ, in %): 73.7; cell viability, 501Mel GP, 1μΜ ([6]; 1μΜ, in %): 75.8; cell viability, 501Mel GP, 10μΜ ([6]; 10μΜ, in %): -0.19; cell viability, A375 XP, 1μΜ ([7]; 1μΜ, in %): 70.8; cell viability, A375 XP, 10μΜ ([7]; 10μΜ, in %): 11.1; cell viability, 501Mel Parental, 1μΜ (501Mel cells (parental); 1μΜ, in %): 73.7; cell viability, 501Mel Parental, 10μΜ (501Mel cells (parental); 10μΜ, in %): 0.4; cell viability, A375 Parental, 1μΜ (A375 cells (parental) [8]; 1μΜ, in %): 68.1; cell viability, A375 Parental, 10μΜ (A375 cells (parental) [8]; 10μΜ, in %): 12.8; cell viability, IGR37 Parental, 1μΜ (IGR37 cells (parental); 1μΜ, in %): 92.2; cell viability, IGR37 Parental, 10μΜ (IGR37 cells (parental); 10μΜ, in %): 1.2"
"COc1ccc(-c2cc3c(C)nc(N)nc3n([C@H]3CC[C@H](OCCO)CC3)c2=O)cn1 [PF-04691502, reference compound]",298,191,254,,,,,,,,,,,,,,,,,,"Cell viability in kinase inhibitor library screening, IGR37 XP, 10μΜ ([2]; 10μΜ): 3.2%; Cell viability in kinase inhibitor library screening, IGR37 XP, 1μΜ ([2]; 1μΜ, in %): 22.1; Cell viability in kinase inhibitor library screening, A375 GP, 1μΜ ([3]; 1μΜ): 22.6; Cell viability in kinase inhibitor library screening, A375 GP, 10μΜ ([3]; 10μΜ): 3.9; Cell viability in kinase inhibitor library screening, 501Mel XP, 1μΜ ([4]; 1μΜ, in %): 10.0; Cell viability in kinase inhibitor library screening, 501Mel XP, 10μΜ ([4]; 10μΜ, in %): -0.224; Cell viability in kinase inhibitor library screening, IGR37 GP, 10μΜ ([5]; 10μΜ): 7.5%; Cell viability in kinase inhibitor library screening, IGR37 GP, 1μΜ ([5]; 1μΜ, in %): 50.6; Cell viability in kinase inhibitor library screening, 501Mel GP, 1μΜ ([6]; 1μΜ, in %): 14.9; Cell viability in kinase inhibitor library screening, 501Mel GP, 10μΜ ([6]; 10μΜ, in %): 0.379; Cell viability in kinase inhibitor library screening, A375 XP, 1μΜ ([7]; 1μΜ): 18.5; Cell viability in kinase inhibitor library screening, A375 XP, 10μΜ ([7]; 10μΜ): 3.3; Cell viability in kinase inhibitor library screening, 501Mel Parental, 1μΜ (501Mel cells (parental); 1μΜ, in %): 21.9; Cell viability in kinase inhibitor library screening, 501Mel Parental, 10μΜ (501Mel cells (parental); 10μΜ, in %): 0.8; Cell viability in kinase inhibitor library screening, A375 Parental, 10μΜ (A375 cells (parental) [8]; 10μΜ): 2.9; Cell viability in kinase inhibitor library screening, A375 Parental, 1μΜ (A375 cells (parental) [8]; 1μΜ): 25.2; Cell viability in kinase inhibitor library screening, IGR37 Parental, 1μΜ (IGR37 cells (parental); 1μΜ, in %): 38.6; Cell viability in kinase inhibitor library screening, IGR37 Parental, 10μΜ (IGR37 cells (parental); 10μΜ, in %): 5.0"
"Nc1ncnc2c1c(-c1cnc3[nH]ccc3c1)nn2C1CCCC1 [PP-121, reference compound]",550,648,417,60.1,4.3,36.1,8.1,51.0,2.4,69.2,9.1,44.0,5.9,37.9,4.5,55.7,3.0,6.5,45.3,75.3,cell viability (kinase inhibitor library screening) (IGR37 cells (parental); 10μΜ): 14.0%
"CCS(=O)(=O)c1cccc(-c2cc(C(=O)NC3CCN(C)CC3)c(C)c3[nH]c4ncc(C)cc4c23)c1 [TAK-901, reference compound]",,,,73.0,4.0,41.6,8.5,83.2,25.7,97.2,9.5,88.7,29.0,52.1,9.6,82.7,12.7,7.6,45.8,93.0,"IC50 (A375 cells (parental) [1]; Homo sapiens, A-375, n.e. = did not suppress growth below 50% in the tested concentration range): 398 nM; cell viability (kinase inhibitor library screening) (IGR37 cells (parental); 10μΜ): 30.2%; IC50 ([9]; Homo sapiens): 472 nM; IC50 ([10]; Homo sapiens): 338 nM"
